Patent US12325681B2, “Inhibitors of nitric oxide synthases (NOS), pharmaceutical products thereof, and methods thereof” (Gacter Inc., priority 2022, dated 2025)
Structures can show the parent of a compound that is named as a salt. Where two headings read alike, the source gives them in different places.

Assays:
iNOS [1] = target: T1, iNOS (Homo sapiens, UniProt P35228); assay: abcam NOS Inhibitor Screening Kit, IC50 (fluorescence); format: biochemical; set-up: IC50
Procedure: The IC50 of some compounds of the invention was determined using the abcam NOS Inhibitor Screening Kit. The procedure includes the following steps: (1) Dissolved a test compound to 10 mM in DMSO; (2) Diluted the test compound to 1 mM in NOS Assay Buffer; (3) Diluted 1 mM of the test compound stocks to 200 μM, 50 μM, 12.5 μM, 3.125 μM, 0.781 μM, and 0.195 μM in NOS Assay Buffer; (4) Diluted 1 mM DPI Control to 50.0 μM, 12.5 μM, 3.125 μM, 0.781 μM, 0.195 μM, and 0.0488 μM in NOS Assay Buffer; (5) Diluted NOS enzyme with 400 μL of NOS Assay Buffer; (6) Combined Diluted NOS Enzyme with 1.6 mL of NOS Assay buffer then transferred 20 μL of enzyme solution to all wells of 96-well Fluorescence plate except background wells. Added 20 μL of NOS Assay buffer to background wells. (7) Transferred 10 uL of each test compound dilution to the enzyme buffer mix according to the plate map (see addendum for plate map and raw data values). (8) Incubated 15 minutes at room temperature. (9) Added 11 μL of NOS reaction mix (according to manufacturer's protocol) to each well, mixed, and incubated at 37° C. for 1 hour. […] Measure Fluorescence at 360 nm excitation/450 nm emission.

iNOS [2] = target: T1, iNOS; assay: as above; format: biochemical; set-up: IC50; IC50; conditions: abcam NOS Inhibitor Screening Kit
Procedure: (§1) The IC50 of some compounds of the invention was determined using the abcam NOS Inhibitor Screening Kit. The procedure includes the following steps: (1) Dissolved a test compound to 10 mM in DMSO; (2) Diluted the test compound to 1 mM in NOS Assay Buffer; (3) Diluted 1 mM of the test compound stocks to 200 μM, 50 μM, 12.5 μM, 3.125 μM, 0.781 μM, and 0.195 μM in NOS Assay Buffer; (4) Diluted 1 mM DPI Control to 50.0 μM, 12.5 μM, 3.125 μM, 0.781 μM, 0.195 μM, and 0.0488 μM in NOS Assay Buffer; (5) Diluted NOS enzyme with 400 μL of NOS Assay Buffer; (6) Combined Diluted NOS Enzyme with 1.6 mL of NOS Assay buffer then transferred 20 μL of enzyme solution to all wells of 96-well Fluorescence plate except background wells. Added 20 μL of NOS Assay buffer to background wells. (7) Transferred 10 uL of each test compound dilution to the enzyme buffer mix according to the plate map (see addendum for plate map and raw data values). (8) Incubated 15 minutes at room temperature. (9) Added 11 μL of NOS reaction mix (according to manufacturer's protocol) to each well, mixed, and incubated at 37° C. for 1 hour. (10) Added 110 μL of NOS Assay Buffer to each well followed by 5 μL of Enhancer to each well, mixed, and incubated 10 minutes at room temperature; (11) Added 10 μL of Probe to each well, mixed, and incubated 10 minutes at room temperature; and (12) Added 5 μL of NaOH to each well, mixed, and incubated 10 minutes at room temperature. Measure Fluorescence at 360 nm excitation/450 nm emission.

iNOS [3] = target: T1, iNOS; assay: as above; format: biochemical; set-up: Fold (GT-xxxx)/AZ 6b; conditions: ratio of IC50 to AZ 6b IC50 (0.0488 μM)
Procedure: as §1

mice = conditions: cited from earlier work
rats = conditions: cited from earlier work
iNOS [4] = target: T1, iNOS; conditions: in words; cited from earlier work

T1 sequence (P35228 whole entry): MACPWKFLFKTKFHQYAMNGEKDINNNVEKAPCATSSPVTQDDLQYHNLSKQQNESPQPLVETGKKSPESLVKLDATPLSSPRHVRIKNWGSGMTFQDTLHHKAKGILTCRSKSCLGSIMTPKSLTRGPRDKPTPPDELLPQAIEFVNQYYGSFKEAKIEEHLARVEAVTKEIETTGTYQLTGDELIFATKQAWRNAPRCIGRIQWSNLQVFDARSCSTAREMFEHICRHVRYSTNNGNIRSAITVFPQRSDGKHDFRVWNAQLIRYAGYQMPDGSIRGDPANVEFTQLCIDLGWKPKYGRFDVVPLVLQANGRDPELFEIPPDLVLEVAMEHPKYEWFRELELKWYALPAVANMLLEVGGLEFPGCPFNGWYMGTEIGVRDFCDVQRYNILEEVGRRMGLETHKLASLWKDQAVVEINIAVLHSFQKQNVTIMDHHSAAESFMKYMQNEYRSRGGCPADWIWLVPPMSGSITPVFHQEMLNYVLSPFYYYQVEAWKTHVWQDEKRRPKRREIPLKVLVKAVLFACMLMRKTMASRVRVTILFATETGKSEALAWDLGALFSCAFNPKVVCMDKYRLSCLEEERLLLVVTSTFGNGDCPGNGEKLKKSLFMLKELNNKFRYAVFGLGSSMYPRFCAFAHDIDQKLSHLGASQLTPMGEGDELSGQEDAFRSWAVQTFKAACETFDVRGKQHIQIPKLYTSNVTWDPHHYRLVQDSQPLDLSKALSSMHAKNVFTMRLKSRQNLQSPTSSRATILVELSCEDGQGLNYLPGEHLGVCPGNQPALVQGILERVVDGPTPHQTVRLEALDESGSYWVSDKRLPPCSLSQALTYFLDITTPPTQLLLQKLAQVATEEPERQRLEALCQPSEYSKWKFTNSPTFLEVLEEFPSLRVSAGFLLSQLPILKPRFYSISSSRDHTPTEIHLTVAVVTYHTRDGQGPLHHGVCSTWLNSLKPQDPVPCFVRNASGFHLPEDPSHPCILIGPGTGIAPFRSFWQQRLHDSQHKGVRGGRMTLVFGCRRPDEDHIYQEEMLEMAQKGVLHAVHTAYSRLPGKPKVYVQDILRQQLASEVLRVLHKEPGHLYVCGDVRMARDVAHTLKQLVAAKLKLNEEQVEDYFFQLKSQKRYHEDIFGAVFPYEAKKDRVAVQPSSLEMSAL

| SMILES | IC50 (iNOS [2]; Table C-1) [nM] | IC50 (iNOS [2]; Table C-2) [nM] | Fold (GT-xxxx)/AZ 6b (iNOS [3]) | further results |
| --- | --- | --- | --- | --- |
| N#Cc1ccc(Cl)cc1O[C@H](CCN)c1ccccc1 [AZ 6b, (R)-2-(3-amino-1-phenylpropoxy)-4-chlorobenzonitrile, reference compound] |  |  |  | IC50 (iNOS [1]): 48.8 nM |
| NCC[C@@H](Oc1cc(Cl)cc2[nH]cnc12)c1ccccc1 [GT-6041, (R)-3-((6-chloro-1H-benzo[d]imidazol-4-yl)oxy)-3-phenylpropan-1-amine] | 156 | 156 | 3.20 |  |
| NCC[C@@H](Oc1cc(Cl)cc2[nH]ncc12)c1ccccc1 [GT-6045] | 231 | 231 | 4.73 |  |
| CNCC[C@@H](Oc1cc(Cl)cc2[nH]cnc12)c1ccccc1 [GT-6058, (R)-3-((6-chloro-1H-benzo[d]imidazol-4-yl)oxy)-N-methyl-3-phenylpropan-1-amine] | 457 | 457 | 9.36 |  |
| CNCC[C@@H](Oc1cc(Cl)cc2[nH]ncc12)c1ccccc1 [GT-6059, (R)-3-((6-chloro-1H-indazol-4-yl)oxy)-N-methyl-3-phenylpropan-1-amine] | 252 | 252 | 5.16 |  |
| OCCNCC[C@@H](Oc1cc(Cl)cc2[nH]cnc12)c1ccccc1 [GT-6060, (R)-2-((3-((6-chloro-1H-benzo[d]imidazol-4-yl)oxy)-3-phenylpropyl)amino)ethan-1-ol] | 444 | 444 | 9.10 |  |
| N#Cc1ccc(Cl)cc1OC(CCN)c1ccnc(N)c1 (stereo not shown) [GT-6064, 2-(3-amino-1-(2-aminopyridin-4-yl)propoxy)-4-chlorobenzonitrile] | 28.5 | 28.5 | 0.58 |  |
| N#Cc1ccc(Cl)cc1OC(CCN1C(=O)c2ccccc2C1=O)c1ccn2ccnc2c1 (stereo not shown) [GT-6065, 4-chloro-2-(3-(1,3-dioxoisoindolin-2-yl)-1-(imidazo[1,2-a]pyridin-7-yl)propoxy)benzonitrile] | 67.8 | 67.8 | 1.39 |  |
| O=C1c2ccccc2C(=O)N1CC[C@@H](Oc1cc(Cl)cc2[nH]ncc12)c1ccccc1 [GT-6066, (R)-2-(3-((6-chloro-1H-indazol-4-yl)oxy)-3-phenylpropyl)isoindoline-1,3-dione] | 270 | 270 | 5.53 |  |
| N#Cc1ccc(Cl)cc1C(=O)N(CCN)c1ccccc1Cl [GT-7002, N-(2-aminoethyl)-5-chloro-N-(2-chlorophenyl)-2-cyanobenzamide] | 112 | 112 | 2.30 |  |
| Cl.N#Cc1ccc(Cl)cc1CN(CCN)c1ccccc1 [GT-7003, 2-(((2-aminoethyl)(phenyl)amino)methyl)-4-chlorobenzonitrile hydrochloride] | 64 | 64 | 1.31 |  |
| NCCN(C(=O)c1cc(Cl)ccc1Br)c1ccccc1Cl [GT-7007, N-(2-aminoethyl)-2-bromo-5-chloro-N-(2-chlorophenyl) benzamide] | 95.5 | 95.5 | 1.96 |  |
| NCCN(Cc1cc(Cl)ccc1Br)c1ccccc1Cl [GT-7008, N1-(2-bromo-5-chlorobenzyl)-N1-(2-chlorophenyl)ethane-1,2-diamine hydrochloride] | 5560 |  |  |  |
| N#Cc1ccc(Cl)cc1C(=O)N(CCNCCO)c1ccccc1 [GT-7009, 5-chloro-2-cyano-N-(2-((2-hydroxyethyl)amino)ethyl)-N-phenylbenzamide] | 148 | 148 | 3.03 |  |
| N#Cc1ccc(Cl)cc1CN(CCNCCO)c1ccccc1 [GT-7010, 4-chloro-2-(((2-((2-hydroxyethyl)amino)ethyl)(phenyl)amino)methyl) benzonitrile] | 9180 |  |  |  |
| N#Cc1ccc(Cl)cc1C(=O)N(CCNCCCO)c1ccccc1 [GT-7011, 5-chloro-2-cyano-N-(2-((3-hydroxypropyl)amino)ethyl)-N-phenylbenzamide] | 290 | 290 | 5.94 |  |
| N#Cc1ccc(Cl)cc1CN(CCNC[C@@H](O)CO)c1ccccc1 [GT-7016, (R)-4-chloro-2-(((2-((2,3-dihydroxypropyl)amino)ethyl)(phenyl)amino)methyl)benzonitrile] | 8520 |  |  |  |
| N#Cc1ccc(Cl)cc1C(=O)N(CCNC(CO)CO)c1ccccc1 [GT-7017, 5-chloro-2-cyano-N-(2-((1,3-dihydroxypropan-2-yl)amino)ethyl)-N-phenylbenzamide] | 3660 |  |  |  |
| N#Cc1ccc(Cl)cc1CN(CCNC(CO)CO)c1ccccc1 [GT-7018, 4-chloro-2-(((2-((1,3-dihydroxypropan-2-yl)amino)ethyl)(phenyl)amino)methyl)benzonitrile] | 20300 |  |  |  |
| N#Cc1ccc(Cl)cc1C(=O)N(CCNCC1CC1)c1ccccc1 [GT-7019, 5-chloro-2-cyano-N-(2-((cyclopropylmethyl)amino)ethyl)-N-phenyl benzamide] | 438 | 438 | 8.98 |  |
| N#Cc1ccc(Cl)cc1CN(CCNCC1CC1)c1ccccc1 [GT-7020, 4-chloro-2-(((2-((cyclopropylmethyl)amino)ethyl)(phenyl)amino)methyl) benzonitrile] | 15500 |  |  |  |
| N=C(N)SCCc1ccc(CCSC(=N)N)cc1 [PBIT, S,S′-1,4-phenylene-bis(1,2-ethanediyl)bis-isothiourea] |  |  |  | acutely toxic at doses as low as (mice): 10 mg/kg; acutely toxic at doses as low as (rats): 10 mg/kg; selectivity of inhibition iNOS to eNOS (iNOS [4]): does not exhibit necessary selectivity |
